Assay results from patent US9486467B2, “Method of treating colorectal cancer that expresses a mutated APC gene by administering erythromycin or tylosin” (RAMOT AT TEL-AVIV UNIVERSITY LTD., priority 2006, dated 2016).
“Also recorded” adds a separate entry of the source.

Columns and labels:
[1] = test system: APC hotspot stop codon mutations; experiment: Dual luciferase reporter plasmid system for APC stop codon readthrough; format: cell-based; conditions: HCT116 colorectal cancer cells; APC hotspots 1061, 1554, 1450; tylosin 4-80 μg/ml
Description: HCT116 CRC cells (control cells carrying a wild-type APC) were cultured in Dulbecco's modified Eagle's medium (DMEM) supplemented with 10% fetal calf serum (FCS) and 100 units/ml penicillin or streptomycin. Cells were kept in a humidified, 5% CO2 atmosphere at 37° C. Cells were transfected using JetPEI (PolyPlus Transfection). The cells were transfected with 0.5 μg of the described construct, and 48 hours later, the levels of luciferase were measured with the Luciferase assay kit (Promega, USA), according to the manufacturer's instructions.
A dual luciferase reporter plasmid system was used to measure the effect of tylosin on readthrough of APC hotspot stop codon mutations in colorectal tissue culture cells. In this system, the Renilla luciferase reporter gene is located upstream of the hotspot, and the firefly luciferase reporter gene is located downstream of the hotspot in the APC wild-type or mutated sequences, and both genes are under the transcriptional control of the APC promoter (FIG. 2a). The Renilla luciferase gene serves as an internal normalization control for transfection efficiency, mRNA abundance and the levels of translation initiation, since translation of both enzymes originates from the same translation initiation signal. Following normalization, the differences in firefly luciferase activities reflect the frequency of stop codon readthrough. Constructs containing either wild-type or the APC mutated sequence at the APC hotspot codons 1061 or 1554 were transfected into HCT116 colorectal cancer cells grown in the presence of varying amounts of antibiotics of the macrolide family.

β-catenin/Tcf signaling = experiment: pTOPFLASH luciferase reporter of β-catenin/Tcf-mediated transcription; format: cell-based; conditions: CX-1 CRC cells (stop mutation in APC hotspot 1554); 8 μg/ml tylosin; 48 h after transfection
Description: Cells were maintained as described above. Cells were transfected with 0.5 μg of pTOPFLASH and 0.05 μg Renilla (Promega, USA). Forty-eight hours later, the levels of luciferase were measured by using the Luciferase assay kit (Promega, USA).
Colorectal cell lines show high levels of β-catenin/Tcf-mediated transcription due to mutations that lead to over-activation of the Wnt signaling pathway. To measure the effect of tylosin on levels of β-catenin/Tcf-mediated transcription, CX-1 CRC cells containing a stop mutation in APC hotspot 1554 were transfected with pTOPFLASH, a luciferase reporter plasmid that is widely used for measuring transcriptional activity of Tcf and β-catenin (pTOPFLASH contains multimerized Tcf-binding sites linked to a luciferase reporter).

HT-29 CRC cells [2] = experiment: HT-29 CRC cell tumorigenicity in nude mice, tylosin in drinking water; format: in vivo; conditions: 0.4 μg/ml tylosin in the drinking water
Description: Six female Nude mice (SCID) were injected with 1×10^7 HT-29 cells. For fourteen days treated groups were fed a normal mouse diet and received drinking water containing 0.4 mg/ml of tylosin. The control group received regular drinking water. Following fourteen days, the mice were sacrificed and the tumors were removed and weighed.
Truncation of APC correlates with tumor formation (15). The present inventor predicted that restoration of functional, full-length APC protein in a cell line containing only truncated APC would lead to a decrease in tumorigenesis. 1×10^7 HT-29 CRC cells containing a hotspot mutation at codon 1554 of APC were injected into twelve nude SCID mice. The treated mice group (six mice) received 0.4 μg/ml tylosin in the drinking water. […] Following fourteen days of receiving drinking water with or without tylosin, the mice were sacrificed and the tumor was removed. The tumors were weighed and the tumor mass of the tylosin-treated mice was, on average, approximately 40% lower than that of the control group (FIG. 4b).

HT-29 CRC cells [3] = experiment: H&E histology of tumors from control and tylosin-treated mice; format: in vivo; conditions: tumor sections of tylosin-treated mice versus control
From the text: Tumor sections from control and treated mice were stained with H&E stain. The slides were examined by a professional pathologist.
Tumor sections from control and tylosin-treated mice were stained with Hematoxylin and Eosin (H&E) stain, a stain used routinely for tissue sections, and were examined by a professional pathologist.

APC = experiment: Anti-APC immunoblot of tumor lysates from treated mice; format: in vivo; conditions: tumors of mice treated with 0.8 mg/ml, 0.4 mg/ml tylosin versus NT, HCT116 wild-type APC as size marker
Description: Tumors from control and treated mice were lysed, run on an SDS-PAGE gel, and transferred to a nitrocellulose membrane. The membrane was incubated with an anti-APC antibody (oncogene APC AB-2).

`CC[C@H]1OC(=O)[C@H](C)[C@@H](O[C@H]2C[C@@](C)(OC)[C@@H](O)[C@H](C)O2)[C@H](C)[C@@H](O[C@@H]2O[C@H](C)C[C@H](N(C)C)[C@H]2O)[C@](C)(O)C[C@@H](C)C(=O)[C@H](C)[C@@H](O)[C@]1(C)O` [erythromycin, Erythromycin] was tested, and the “APC stop codon readthrough (firefly luciferase normalized to Renilla)” value [1] was “more moderate levels of stop codon readthrough”.
With `CC[C@H]1OC(=O)C[C@@H](O)[C@H](C)[C@@H](O[C@@H]2O[C@H](C)[C@@H](O[C@H]3C[C@@](C)(O)[C@@H](O)[C@H](C)O3)[C@H](N(C)C)[C@H]2O)[C@@H](CC=O)C[C@@H](C)C(=O)/C=C/C(C)=C/[C@@H]1CO[C@@H]1O[C@H](C)[C@@H](O)[C@@H](OC)[C@H]1OC` [tylosin] the “APC stop codon readthrough (firefly luciferase normalized to Renilla)” value [1] was “significant levels of APC stop codon readthrough; also recorded: higher levels of readthrough compared to erythromycin, spiramycin, and gentamycin”, the “reduction in β-catenin/Tcf/LEF transcriptional signaling” value (β-catenin/Tcf signaling) was “approximately 50%” and the “tumor size versus control mice” value (HT-29 CRC cells [2]; nude SCID mice injected with 1×10^7 HT-29 cells, FIG. 4: ten days post-injection) was “reduced tumor size compared with the control mice; also recorded: smaller compared to that of the control group”. The “tumor mass lower than that of the control group, on average” value (HT-29 CRC cells [2]; nude SCID mice, HT-29 cells, fourteen days) was “approximately 40%”, the “blood supply to the tumor (H&E stain)” value (HT-29 CRC cells [3]) was “not affected” and the “tumor histology (H&E stain)” value (HT-29 CRC cells [3]) was “necrosis and death of tumor cells”. The “expression of full-length APC in tumors (anti-APC antibodies)” value (APC) was “a higher amount of tylosin increased the expression of the full-length protein accordingly” and the “expression of full-length APC in tumors (anti-APC antibodies)” value (APC; listed as Tylosin) was “expression of full-length APC”.
With Spiramycin the “APC stop codon readthrough (firefly luciferase normalized to Renilla)” value [1] was “more moderate levels of stop codon readthrough”.
In the case of gentamycin, the “APC stop codon readthrough (firefly luciferase normalized to Renilla)” value [1] is reported as “more moderate levels of stop codon readthrough”.
